Key:
LL2 tumor = assay: Murine syngeneic LL2 lung tumor model; format: in vivo; details: LL2 tumor-bearing mice
Description: Briefly, LL2 cells that had been transfected with the luciferase reporter gene were inoculated subcutaneously into C57BL/6 mice.
LL2 cells (5×10^5) expressing a luciferase reporter were inoculated subcutaneously into the backs of C57BL/6 mice, as a lung cancer animal model. After 7 days, saline control or copolypeptides were injected intratumorally to start the beginning of the timeline (day zero). […] Tumor growth, body weight, and survival were closely monitored. Tumor volume was calculated using the following equation: (length of tumor)×(width of tumor)^2×0.45 by measuring the tumors in two perpendicular axes with a tissue caliper. Once the tumor volume reached 2,000 mm^3, the mice were sacrificed and subsequently recorded as dead. […] On day 12, mice were intraperitoneally injected with D-luciferin potassium salt (200 μL, 10 mg/mL, Thermo Fisher Scientific), followed by anesthesia with 2% isoflurane in order to perform in vivo bioluminescence imaging. An IVIS-200 Perkin Elmer system with its integrated acquisition and analysis software (Living Image V. 2.50) was performed to quantify the said signals. On day 32, an optical microscope was used to examine the number of pulmonary metastatic nodules.

[1] = Secondary conformation by circular dichroism (BeStSel fit); format: physicochemical; details: CD, 0.1 mg mL^−1 in DI water, neutral condition
Description: The BeStSel software (Beta Structure Selection) was used to compute the percentages of peptide chain conformation by fitting the CD spectra.
The MALDI-TOF MS spectrum of the side-chain protected peptide was recorded in the reflection mode of a MALDI-TOF spectrometer (Bruker Autoflex III TOF/TOF). […] For CD measurements, the concentration of peptide samples in DI water was 0.1 mg mL^−1. SAXS patterns of peptide solutions were recorded on a Bruker NanoSTAR U diffractometer with controlled voltage 45 kV and current 650 μA at room temperature under 4×10^−1 torr. The critical aggregation concentration (cac) of peptides was determined by measuring the pyrene emission spectra of various peptide solutions with an integration time of 1.0 sec using a Hitachi FL-4500 fluorescence spectrophotometer.

E-cadherin = assay: Immunoblot analysis in H1299 cells; format: cell-based; details: H1299, 24 h
Description: (§1) In the present disclosure, E-cadherin is one of the crucial molecules in cell-cell adhesion, participating in cancer progression.
(§2) The immunoblot analysis was conducted by treating H1299 cells with copolypeptides (4 μM) in the presence or absence of cisplatin (5 μM) for 24 h, followed by extraction using RIPA Lysis and Extraction Buffer (Thermo Fisher Scientific) and then separation by using 8% SDS-PAGE. Upon transferring onto NC membranes (0.22 μm) blocked in 5% fat-free dry milk, the proteins were incubated with primary antibodies against E-cadherin, caspase-3, poly(ADP-ribose) polymerase (PARP), and β-actin, followed by incubation with their appropriate secondary antibodies. An Immobilon Western Chemiluminescent HRP Substrate kit (Merck) was used to form visualized protein bands and the intensities of the protein bands were quantified using the Image J software (Image Processing and Analysis in Java) by normalizing to that of β-actin.

caspase-3, and PARP = assay: Immunoblot analysis in H1299 cells; format: cell-based; details: H1299, 24 h
Description: as §1, §2

A549 cells = assay: Membrane staining with 1,1′-diethyl-4,4′-carbocyanine iodide; format: cell-based; details: A549, 4 μM, 6 h
H1299 cells [2] = assay: as above; format: cell-based; details: H1299, 4 μM, 6 h
H1299 cells [3] = assay: Cytotoxicity, CCK-8 assay; format: cell-based; details: H1299, linear copolypeptides, 0 to 100 μM
Description: The cytotoxicity of copolypeptides at various concentrations or in combination with cisplatin (5 μM) was evaluated by incubating with A549, BEAS-2B, and H1299 cells (5×10^3 cells/well) in 96-well plates for 24 h using 10% FBS DMEM as the medium. After adding CCK-8 reagent (Targetmol) dissolved in serum-free medium, the well plates were incubated at 37° C. for 1 h. Upon transferring the medium to fresh 96-well plates, the absorbance of each well was measured at 450 nm using a Microplate Spectrophotometer (BioTek). The percentages of viable cells were calculated by the below equation:
Cell viability (%)=(Absorbancetest cell−Absorbanceblank)/(Absorbancecontrol cell−Absorbanceblank)×100

[4] = system: H1299 (p53-deficient) cells; assay: Transfection efficiency of copolypeptides/pDNA polyplexes; format: cell-based; details: H1299, relative to lipofectamine 2000
Excerpt: LysmBnCys5 copolypeptides (m=5, 10, and 15, i.e., SEQ ID NOs: 2, 5, and 3)) efficiently carried p53 gene (pcDNA3 p53 WT plasmid) into H1299 (p53-deficient) cells and enhanced chemotherapeutic treatment. […] Improved transfection efficiency was mainly attributed to optimal polyplex stability, determined by peptide charge density and rigidity. […] Moreover, treatment with both LysmBnCys5/p53 gene vector and cisplatin extended the survival rates of tumor-bearing mice.
FIGS. 22A-22B are results showing the p53 gene transfection efficiencies of various star-shaped copolypeptides to H1299 cells.
5.0 μM copolypeptides or 4.0 μL lipofectamine 2000 (Thermo Fisher Scientific) were mixed with 4.0 μg of plasmid DNA (pEGFP-C, Clontech) in 1 mL serum-free DMEM and left standing for 20 min. After cell concentration reached 2×10^5 cells/well in 6-well plates, the culture medium was replaced with 1 mL copolypeptides/DNA complexes (polyplexes) and incubated for 6 h. […] Green fluorescent protein (GFP) expression of transfected cells was examined under an inverted fluorescence microscope (IX71, Olympus). Quantitative evaluation of the transfection efficiency was also conducted using a flow cytometer (BD Biosciences). […] Transfection efficiency was then calculated as the percentage of cells expressing GFP, with the fluorescence of 2×10^4 cells evaluated by flow cytometry.

## N.N.[Cl][Pt][Cl] [cisplatin]
LL2 tumor
  body weight loss: weight loss

## LLLLLCCCCC [Lys5Cys5]
[1]
  Random coil (%): 32.0%
  ß-sheet/turn (%): 68.0%
E-cadherin
  E-cadherin expression: reduced E-cadherin expression
caspase-3, and PARP
  caspase-3 and PARP expression: triggered caspase-3, and PARP expression significantly
A549 cells
  membrane staining with 1,1′-diethyl-4,4′-carbocyanine iodide: not
H1299 cells [2]
  membrane staining with 1,1′-diethyl-4,4′-carbocyanine iodide: not

## Lys10BnCys5: poly-L-lysine-block-poly-S-benzyl-L-cysteine, 10 and 5 residues
H1299 cells [3]
  cell viability: cell viability decreased with increasing concentration

## Lys15BnCys5: poly-L-lysine-block-poly-S-benzyl-L-cysteine, 15 and 5 residues
[4]
  transfection efficiency: almost equivalent to that using lipofectamine 2000
H1299 cells [3]
  cell viability: cell viability decreased with increasing concentration

## poly-L-guanidinylated lysine [PLGL15]
H1299 cells [3]
  cell viability: cell viability decreased with increasing concentration

## poly-L-lysine (LLLLLLLLLLLLLLL) [PLL15, poly-L-lysine, 15 residues]
H1299 cells [3]
  cell viability: cell viability decreased with increasing concentration

From patent publication US20240228537A1, “BLOCK COPOLYPEPTIDES AND USE THEREOF” (National Cheng Kung University, priority 2023, published 2024)
